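48-hour exposure; five concentrations; linearly interpolated endpoints. GI50 is the concentration that inhibits growth by half. At the TGI there is no net growth.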
Key:
Test in all cases: NCI tumour cell line growth inhibition, 48 h
LXFL 529 NSCLC = tested on: LXFL 529 NSCLC
SNB-78 CNS = tested on: SNB-78 CNS
MDA-MB-231 breast = tested on: MDA-MB-231 breast
P388 leukemia = tested on: P388 leukemia
P388/ADR leukemia = tested on: P388/ADR leukemia
SN12K1 renal = tested on: SN12K1 renal
RXF-631 renal = tested on: RXF-631 renal

SMILES	TGI (LXFL 529 NSCLC) [µM]	TGI (SNB-78 CNS) [µM]	TGI (MDA-MB-231 breast) [µM]	other results
O=C(O)CC/C(=N\Nc1nsc2ccccc12)c1ccccc1	> 100	> 100		
C[C@]12CC[C@@H]3c4ccc(O)cc4CC[C@H]3[C@@H]1C/C(=C\c1ccncc1)C2=O			> 100	
COCCOCOc1ccc(OCc2ccccc2)cc1		> 100		TGI (P388 leukemia): 60.7 µM; TGI (P388/ADR leukemia): 89.1 µM; TGI (SN12K1 renal): > 100 µM
C=CCN1C(=O)/C(=C/c2ccccc2)N=C1SC1OC(COC(=O)c2ccccc2)C(OC(=O)c2ccccc2)C1OC(=O)c1ccccc1 (stereo unspecified)			> 100	
C/C(CCOC1CCCCO1)=C(\C)[Si](C)(C)C (stereo unspecified)	> 100	> 100		
COc1ccc2[nH]c(O)c(/C=c3/cc4c(c(-c5cc(OC)c(OC)c(OC)c5)n3)=Nc3ccccc3-4)c2c1			36.6	GI50 (MDA-MB-231 breast): 0.982 µM
C=C(C(=O)C(=O)Oc1ccc(Cl)cc1)C(=O)c1ccc(C)cc1	80	> 100		TGI (RXF-631 renal): > 100 µM
CC(C)OP(=O)(OC(C)C)c1c(Nc2ccccc2)n[nH]c1N			> 100	
CCOC(=O)c1csc(NC(=O)CCN(CC)CC)n1			> 100	
CC1=C(O)C(=O)[C@@H]2O[C@@H]2C1=O		40.9		TGI (P388 leukemia): 4.99 µM; TGI (P388/ADR leukemia): 32.9 µM; TGI (SN12K1 renal): 32.3 µM
